Results from ChEMBL document CHEMBL1201862, “PubChem BioAssay data set” (2004).
Activity calls are given as the source filed them.

Key:
[1] = Luminescence Cell-Based Dose Retest to Confirm Inhibitors of Cancer Stem Cells. [Related pubchem assays (depositor defined):AID2717, AID2721]; format: functional; details: Homo sapiens
[2] = viability loss of HMLE_sh_eGFP cells – cell-based, luminescence, counter-screen for HMLE_sh_ECad selective toxicity project, dose response (AID 463074); format: functional, Homo sapiens;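 also: HMLE human mammary epithelial cells expressing control shRNA against eGFP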
Vero [3] = test: viability of Vero cells under compound – cytotoxicity control for flavivirus capping enzyme inhibitors (AID 588742); format: functional; details: Chlorocebus sabaeus
[4] = viability loss in THP-1 monocytes – THP-1 cells, cytotoxicity control for Vif-APOBEC3G degradation inhibitor project, dose response (AID 1117359); format: functional; details: THP-1
Vero [5] = test: cells; format: functional, cell-based; details: Chlorocebus sabaeus
Vero [6] = test: cells; format: functional; details: Chlorocebus sabaeus
Galanin receptor type 3 = target: T1, Galanin receptor type 3 (Homo sapiens, UniProt O60755); test: Fluorescence-based cell-based primary high throughput dose response assay to identify antagonists of the Galanin Receptor 3 (GalR3).; format: functional
T1 sequence (O60755 whole entry): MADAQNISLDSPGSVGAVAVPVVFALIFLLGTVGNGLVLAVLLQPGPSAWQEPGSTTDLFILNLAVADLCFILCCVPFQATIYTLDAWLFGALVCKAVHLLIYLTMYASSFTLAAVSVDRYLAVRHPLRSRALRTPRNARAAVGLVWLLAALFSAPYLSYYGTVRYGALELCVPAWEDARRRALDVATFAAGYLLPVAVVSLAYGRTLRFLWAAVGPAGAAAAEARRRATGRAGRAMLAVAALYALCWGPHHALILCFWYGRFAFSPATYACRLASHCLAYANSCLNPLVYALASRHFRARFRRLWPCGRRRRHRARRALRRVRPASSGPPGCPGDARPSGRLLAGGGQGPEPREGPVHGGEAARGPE

cells [7] = format: functional, cell-based; details: HEK-CNG
Paired box protein Pax-8 = Paired box protein Pax-8 (Homo sapiens, UniProt Q06710); test: PAX8 transcriptional activity inhibition in RMG-I – RMG-I cells, luciferase, cherry-pick, dose response (AID 687027); format: functional, cell-based;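 also: luciferase reporter driven by Pax8 target thyroperoxidase promoter measured by SteadyGlo luminescence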
Sequence of Paired box protein Pax-8 (Q06710 whole entry): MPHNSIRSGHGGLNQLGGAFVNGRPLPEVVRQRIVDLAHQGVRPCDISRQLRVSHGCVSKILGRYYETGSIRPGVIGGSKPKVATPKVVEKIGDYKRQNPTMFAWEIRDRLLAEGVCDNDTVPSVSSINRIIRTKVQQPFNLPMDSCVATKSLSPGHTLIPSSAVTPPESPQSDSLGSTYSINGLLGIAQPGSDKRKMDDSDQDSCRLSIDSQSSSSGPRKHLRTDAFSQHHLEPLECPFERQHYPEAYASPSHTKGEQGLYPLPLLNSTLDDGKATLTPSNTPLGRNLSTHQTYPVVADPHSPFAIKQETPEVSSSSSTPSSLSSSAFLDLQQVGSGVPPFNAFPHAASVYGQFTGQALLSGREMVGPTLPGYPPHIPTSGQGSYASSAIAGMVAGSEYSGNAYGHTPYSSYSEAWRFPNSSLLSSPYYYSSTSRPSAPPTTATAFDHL

[8] = target: Intestinal-type alkaline phosphatase (Mus musculus, UniProt P24822); test: PubChem AID 488874; format: functional
Sequence of Intestinal-type alkaline phosphatase (Mus musculus, UniProt P24822) (P24822 whole entry): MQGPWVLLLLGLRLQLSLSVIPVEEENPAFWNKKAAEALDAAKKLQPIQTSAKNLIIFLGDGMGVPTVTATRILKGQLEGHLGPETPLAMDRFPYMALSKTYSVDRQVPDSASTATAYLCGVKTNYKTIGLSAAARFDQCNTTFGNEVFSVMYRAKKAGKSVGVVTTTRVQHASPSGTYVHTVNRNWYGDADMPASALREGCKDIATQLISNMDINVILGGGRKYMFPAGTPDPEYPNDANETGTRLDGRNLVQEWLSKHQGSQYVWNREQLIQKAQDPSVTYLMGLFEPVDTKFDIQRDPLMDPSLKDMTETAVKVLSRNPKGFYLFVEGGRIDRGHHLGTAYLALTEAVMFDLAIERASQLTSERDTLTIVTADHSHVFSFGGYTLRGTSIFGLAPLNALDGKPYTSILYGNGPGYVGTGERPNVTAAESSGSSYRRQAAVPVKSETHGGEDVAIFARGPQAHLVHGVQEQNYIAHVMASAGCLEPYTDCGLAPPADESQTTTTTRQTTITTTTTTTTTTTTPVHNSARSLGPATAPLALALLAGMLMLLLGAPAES

[9] = target: T2, Intestinal-type alkaline phosphatase (Homo sapiens, UniProt P09923); test: human intestinal alkaline phosphatase activators, dose response, biochemical, luminescence, uHTS hits (AID 463120); format: functional
T2 sequence (P09923 whole entry): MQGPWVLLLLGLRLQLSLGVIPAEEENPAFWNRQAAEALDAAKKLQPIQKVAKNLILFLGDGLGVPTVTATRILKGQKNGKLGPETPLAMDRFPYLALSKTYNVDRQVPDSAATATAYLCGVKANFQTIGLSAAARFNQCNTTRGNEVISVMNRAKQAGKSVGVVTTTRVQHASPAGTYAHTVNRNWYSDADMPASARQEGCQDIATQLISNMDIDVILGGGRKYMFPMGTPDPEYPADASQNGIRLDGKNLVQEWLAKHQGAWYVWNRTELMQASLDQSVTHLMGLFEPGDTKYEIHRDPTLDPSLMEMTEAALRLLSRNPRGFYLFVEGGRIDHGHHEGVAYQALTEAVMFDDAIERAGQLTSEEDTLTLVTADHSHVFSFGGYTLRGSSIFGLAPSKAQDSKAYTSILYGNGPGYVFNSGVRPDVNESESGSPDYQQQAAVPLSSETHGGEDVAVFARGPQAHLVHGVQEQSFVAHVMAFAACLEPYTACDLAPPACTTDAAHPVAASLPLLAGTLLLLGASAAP

[10] = target: T2, Intestinal-type alkaline phosphatase; test: activation of human intestinal alkaline phosphatase – biochemical, luminescent, uHTS hits, set 2, dose response (AID 488817); format: functional;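 also: potency of activators that raise enzyme activity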
[11] = target: T3, Alkaline phosphatase, tissue-nonspecific isozyme (Homo sapiens, UniProt P05186); test: activation of tissue-nonspecific alkaline phosphatase – biochemical, TNAP isozyme, human IAP uHTS hits, selectivity assay for human IAP activator project, dose response (AID 488886); format: functional;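 also: potency of compounds raising TNAP activity as a selectivity check on IAP activators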
T3 sequence (P05186 whole entry): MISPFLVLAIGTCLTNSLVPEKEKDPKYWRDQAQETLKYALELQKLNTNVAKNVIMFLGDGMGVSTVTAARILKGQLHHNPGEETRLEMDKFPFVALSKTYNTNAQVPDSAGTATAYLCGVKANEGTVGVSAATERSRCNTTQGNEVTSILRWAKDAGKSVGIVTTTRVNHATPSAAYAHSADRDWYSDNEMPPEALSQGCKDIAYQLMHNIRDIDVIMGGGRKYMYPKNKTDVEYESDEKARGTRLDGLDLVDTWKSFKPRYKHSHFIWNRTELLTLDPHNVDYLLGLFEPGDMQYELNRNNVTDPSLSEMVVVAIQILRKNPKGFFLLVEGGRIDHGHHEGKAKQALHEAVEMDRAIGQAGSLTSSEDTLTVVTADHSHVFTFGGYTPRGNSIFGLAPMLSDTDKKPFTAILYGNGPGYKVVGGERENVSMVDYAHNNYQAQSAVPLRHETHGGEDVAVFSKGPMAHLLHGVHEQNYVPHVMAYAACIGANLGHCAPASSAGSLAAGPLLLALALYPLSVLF

[12] = NIH-3T3 fibroblast cytotoxicity, dose response, cytotoxicity control, cell-based, fluorescence, Alamar Blue, secondary assay (AID 2327); format: functional;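 also: NIH-3T3 mouse fibroblasts cultured with fluconazole at 8 µg/mL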
BJ [13] = test: BJ-TERT fibroblast viability loss – cell-based, RAS-independent, luminescence, dose response (AID 1933); format: functional; details: Homo sapiens
cells [14] = format: functional, cell-based
BJ [15] = test: cells; format: functional, cell-based; details: Homo sapiens
[16] = fluconazole-exposed Candida albicans growth modulators – fluorescence, retest, confirmation (AID 2467); format: functional, cell-based
cells [17] = format: functional, cell-based; remark: listed apart in the source
BJ [18] = test: BJ-TERT-LT-ST fibroblast viability loss – cell-based, RAS-independent, luminescence, dose response (AID 1935); format: functional; details: Homo sapiens;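 also: BJ fibroblasts immortalized with TERT plus LT and ST oncogenes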
[19] = DRD fibroblast viability loss – cell-based, non-viral oncogenic, luminescence, dose response (AID 1934); format: functional; details: Homo sapiens
[20] = HEK-293T viability loss after treatment – luminescence, T-cell screen hits, cytotoxicity control for TCR NF-kB inhibitor project, dose response (AID 489026); format: functional, cell-based;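 also: cells exposed to compound about 14 hours before the viability readout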
BJ [21] = test: growth inhibition of engineered Ras-driven BJ cells – cell-based, alamar blue fluorescence, cherrypicked samples, dose response (AID 2631); format: functional; details: Homo sapiens;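 also: confirmatory dose-response assay in RAS-dependent BJ fibroblasts engineered with TERT, LT and ST, with cytotoxicity read by fluorescence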
INS1 = test: INS-1E survival protection against cytokine death – cell-based, luminescence, retest, dose response (AID 449756); format: functional; details: Rattus norvegicus;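 also: cell death triggered by IL-1 beta plus TNF-alpha plus IFN-gamma mixture; protective hits raise ATP signal compared with cytokine alone wells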

COc1cc(NC(=O)c2ccnc(N)c2)cc(C(=O)Nc2cccc(C(F)(F)F)c2)c1
AC50 [1]: 17.4 µM (active) | AC50 [2]: 39.5 µM (active)

Oc1ccc(NCc2cccc(OCc3ccccc3)c2)cc1
CC50 (Vero [3]): > 40 µM (active) | CC50 [4]: 36.2 µM (active)

C[C@]12CC[C@H]3[C@@H](CC[C@@]4(O)C[C@@H](O)CC[C@]34C=O)[C@]1(O)CC[C@@H]2C1=CC(=O)OC1
IC50 (Vero [5]): < 0.05 µM (active) | CC50 (Vero [6]): 1.65 µM (active) | IC50 (Galanin receptor type 3): > 29.9 µM (inactive) | EC50 (cells [7]): > 29.9 µM (inactive) | AC50 (Paired box protein Pax-8): 3.39 µM (active)

Cc1ccsc1C(=O)NNC(=S)NC1CCCCC1
IC50 [8]: 56.7 µM (active) | EC50 [9]: 10.3 µM (active) | EC50 [10]: 15 µM (active) | EC50 [11]: 13.9 µM (active)

C=CCc1cc(Cl)ccc1OCCOCCNC(C)CC (stereo not given)
AC50 [1]: 21.5 µM (active) | AC50 [2]: 34.5 µM (active)

CCN(CC)c1ccc(/C=N/NC(=O)c2nnn(-c3nonc3N)c2C(C)C)c(O)c1
EC50 [12]: 4 µM (active) | EC50 (BJ [13]): 7.4 µM (inconclusive) | EC50 (cells [14]): 5.38 µM (active) | EC50 (BJ [15]): 2.83 µM (active) | EC50 [16]: 0.401 µM (active) | EC50 (cells [17]): > 350 µM (not active) | EC50 (BJ [18]): 6.05 µM (inconclusive) | EC50 [19]: 8.09 µM (inconclusive) | IC50 [8]: 78 µM (active) | EC50 [9]: 10.5 µM (active) | IC50 [20]: > 80 µM (inactive) | EC50 [10]: 20.6 µM (active) | EC50 [11]: 19 µM (active) | EC50 (BJ [21]): 0.199 µM (active) | AC50 (INS1): < 0.195 µM (active)
